In patent US20090221522A1, “METHODS TO CORRECT GENE SET EXPRESSION PROFILES TO DRUG SENSITIVITY” (The Johns Hopkins University, priority 2008, published 2009):

Test system: direct pancreatic cancer xenografts (fine needle aspiration cells)
Test: Ex vivo perturbability assay, low-density microarray RT-PCR
Assay type: cell-based
Set-up: key to RRM1 gene expression / NFKB1 gene expression / BNIP3L gene expression / VHL gene expression / DCK gene expression / HIF1B gene expression / IGF1R gene expression / MAPK1 gene expression / MAP2K2 gene expression / JUN gene expression / IHH gene expression: % of untreated control (treated sample normalized to untreated)
Settings: treated normalized to untreated control
Source text: Direct pancreatic cancer derived xenografts: Resected pancreatic adenocarcinomas are routinely implanted in nude mice at the Johns Hopkins Medical Institutions as a method to obtain enriched populations of neoplastic cells under an IRB-approved protocol from residual pancreatic cancer tumors. Tumor specimens from Whipple resection specimens were divided into 2-3 mm^3 pieces in antibiotic-containing RPMI media. Pieces of non-necrotic tissue were selected and immersed in Matrigel. Under anesthesia with isofluorane, tumors were implanted into five-to-six week-old female athymic (nu/nu) mice purchased from Harlan (Harlan Laboratories, Washington, D.C.). This research protocol was approved by the Johns Hopkins University Animal Use and Care Committee arid animals were maintained in accordance to guidelines of the American Association of Laboratory Animal Care. Tumors were propagated to subsequent cohorts of mice until a sufficient number were available for drug testing.
Fine needle aspiration (FNA): FNAs on mice were performed according to standard cytopathologic practice using 10 cc syringes and 25-gauge needles. The procedure was performed under inhaled general anesthesia with isofluorane. During each FNA procedure the first pass was smeared onto glass slides and used for morphologic analysis and quality control, (DiffQuik™ and Papanicoloau), and the second through sixth passes were used to acquire viable cells.
Ex vivo assay: FNA passes used to acquire viable cells were immediately transferred into 10 ml sterile prewarmed complete RPMI-1640 culture medium containing 10% FBS, penicillin (200 ug/ml), and streptomycin (200 ug/ml). Equivalent aliquots of cells were seeded in two wells of a 6-well polypropylene microplate. […] Following treatment, non-adherent and adherent cells (collected by scraping) were pooled together in a 1.5 mL microcentrifuge tube and centrifuged at 500 g for 5 mm at 4° C. After washing with PBS, cells were lysed in 100 μL of ice-cold RLT.
RNA extraction and cDNA generation: Total RNA was extracted from cells using the RNeasy™ Mini Kit (Qiagen, Valencia, Calif.) following the manufacturer's instructions. cDNA was synthesized using iScript cDNA synthesis kit (Bio-Rad) following the manufacturer's instructions.
Low-density micro arrays (LDMA): The samples were run in a customized assay with a 384-well format (ABI, Foster City, Calif.), where the expression of 45 to 381 relevant genes can be quantitatively tested. For this example, the array was designed with 8 replicated sections containing 48 wells, with primers of one gene per well: 3 housekeeping genes (HK: UBC, HPRT, SDHA), and 45 genes of interest. 50 μL of cDNA plus 50 μL of ABI mastermix were loaded onto each of two contiguous lanes to have duplicated readouts of every sample, and were run by real-time reverse transcriptase PCR (RT-PCR). The amount of change in the target genes was calculated by comparing the threshold cycle (CT) of each gene to the geometric mean of the CTs of the HK genes. Relative expression of the target genes was estimated using the formula: relative expression=2−^ΔCT, where ΔCT=CT (target gene)−CT (average of the 3 HK genes). The experiment was run in duplicate and mean values are analyzed.
Data analysis: The expression level of each gene in the treated sample was normalized to that of the untreated control. A significant change was defined when the gene expression either increases two-fold or more (>200%), or decreases to half or more (<50%). The rest is considered uninformative.

## Nc1ccn([C@@H]2O[C@H](CO)[C@@H](O)C2(F)F)c(=O)n1 [gemcitabine]
Case #8
  MAP2K2 gene expression: 86
  MAPK1 gene expression: 78
  MAPK3 gene expression: 90
  MDM2 gene expression: 65
  MSLN gene expression: 98
  NOTCH1 gene expression: 118
  NOTCH2 gene expression: 122
  PLK1 gene expression: 90
  PSCA gene expression: 101
  PTCH gene expression: 203
  RRM1 gene expression: 104
  SHH gene expression: 77
  Survivin gene expression: 74
  TGFA gene expression: 107
  VEGF gene expression: 105
  VHL gene expression: 101
  p21 gene expression: 100
Case #9
  AXIN2 gene expression: 106
  BAX gene expression: 92
  BNIP3L gene expression: 95
  BRAF gene expression: 93
  BRCA1 gene expression: 161
  CCND1 gene expression: 97
  CXCR4 gene expression: 649
  CyclinB1 gene expression: 115
  DCK gene expression: 117
  EGFR gene expression: 85
  ERCC1 gene expression: 91
  FOS gene expression: 83
  GADD45A gene expression: 74
  GLI2 gene expression: 99
  HIF1A gene expression: 100
  HIF1B gene expression: 107
  IGF1R gene expression: 53
  IGFBP3 gene expression: 42
  IHH gene expression: 99
  JUN gene expression: 92
  MAP2K2 gene expression: 90
  MAPK1 gene expression: 99
  MAPK3 gene expression: 106
  MDM2 gene expression: 92
  MSLN gene expression: 107
  NOTCH1 gene expression: 96
  NOTCH2 gene expression: 101
  PLK1 gene expression: 111
  PSCA gene expression: 94
  PTCH gene expression: 78
  RRM1 gene expression: 73
  SHH gene expression: 47
  Survivin gene expression: 104
  TGFA gene expression: 103
  VEGF gene expression: 87
  VHL gene expression: 110
  p21 gene expression: 83
Case #10
  AXIN2 gene expression: 202
  BAX gene expression: 91
  BNIP3L gene expression: 97
  BRAF gene expression: 65
  BRCA1 gene expression: 62
  CCND1 gene expression: 69
  CXCR4 gene expression: 53
  CyclinB1 gene expression: 89
  DCK gene expression: 91
  EGFR gene expression: 50
  ERCC1 gene expression: 91
  FOS gene expression: 96
  GADD45A gene expression: 106
  GLI2 gene expression: 30
  HIF1A gene expression: 90
  HIF1B gene expression: 76
  IGF1R gene expression: 66
  IGFBP3 gene expression: 96
  IHH gene expression: 93
  JUN gene expression: 82
  MAP2K2 gene expression: 89
  MAPK1 gene expression: 79
  MAPK3 gene expression: 73
  MDM2 gene expression: 86
  MSLN gene expression: 90
  NFKB1 gene expression: 78
  NOTCH1 gene expression: 70
  NOTCH2 gene expression: 101
  PLK1 gene expression: 68
  PSCA gene expression: 108
  PTCH gene expression: 33
  RRM1 gene expression: 92
  SHH gene expression: 70
  Survivin gene expression: 64
  TGFA gene expression: 141
  VEGF gene expression: 97
  VHL gene expression: 74
  p21 gene expression: 119
